Test results published in patent US20250092056A1, “URACIL DERIVATIVES HAVING VIRUS REPLICATION INHIBITORY ACTIVITY AND PHARMACEUTICAL COMPOSITION COMPRISING THE SAME” (Shionogi & Co., Ltd., priority 2022, published 2025).

Columns and labels:
SARS-CoV-2 = assay: Cytopathic effect (CPE) suppression effect confirmation test using HEK293T/ACE2-TMPRSS2 cells; format: cell-based; details: Severe acute respiratory syndrome coronavirus 2, HEK-293T; 50% SARS-CoV-2 infected cell death inhibitory concentration; HEK293T/ACE2-TMPRSS2 cells; read-out: EC50
[1] = biological target: Recombinant SARS-CoV-2 3CL Protease (Severe acute respiratory syndrome coronavirus 2 (2019-nCoV) (SARS-CoV-2), UniProt P0DTD1); assay: biochemical; format: biochemical; details: 50% SARS-CoV-2 3CL protease inhibitory concentration; read-out: IC50

Row | Compound | EC50 (SARS-CoV-2) [nM] | IC50 [1] [nM]
1 | N#CCn1c(N2CC(O)(C(F)(F)F)C2)c(-c2ccc(F)c(F)c2)c(=O)n(-c2cncc(Cl)c2)c1=O [Compound I-317] | < 100 | < 10
2 | N#CCn1c(N2CC(OC(F)(F)F)C2)c(-c2ccc(F)c(F)c2)c(=O)n(-c2cncc(Cl)c2)c1=O [Compound I-318] | < 100 | < 10
3 | N#CCn1c(N2CC(OC(F)F)C2)c(-c2ccc(F)c(F)c2)c(=O)n(-c2cncc(Cl)c2)c1=O [Compound I-319] | < 100 | < 10
4 | N#CCn1c(N2C[C@@H]3C[C@H]2CO3)c(-c2ccc(F)c(F)c2)c(=O)n(-c2cncc(Cl)c2)c1=O [Compound I-320] | < 100 | < 10
5 | N#CCn1c(N2CC(O)(c3ncccn3)C2)c(-c2ccc(F)c(F)c2)c(=O)n(-c2cncc(Cl)c2)c1=O [Compound I-321] | < 100 | < 10
6 | N#CCn1c(N2CC(O)C2)c(-c2ccc(F)c(F)c2)c(=O)n(-c2cncc(Cl)c2)c1=O [Compound I-322] | < 100 | < 10
7 | N#CCn1c(N2CC3(C2)CC(F)(F)C3)c(-c2ccc(F)c(Cl)c2)c(=O)n(-c2cnc3cc(F)c(F)cn23)c1=O [Compound I-323] | < 100 | < 10
8 | N#CCn1c(CCC(F)(F)F)c(-c2ccc(F)c(Cl)c2)c(=O)n(-c2cncc(Cl)c2)c1=O [Compound I-324] | < 100 | < 10
9 | N#CCn1c(N2CC3(C2)CC(F)(F)C3)c(-c2ccc(F)c(Cl)c2)c(=O)n(-c2cncc(OCF)c2)c1=O [Compound I-325] | < 100 | < 10
10 | N#CCn1c(N2CCC(F)(F)CC2)c(-c2cc(F)c(F)c(F)c2)c(=O)n(-c2cncc(Cl)c2)c1=O [Compound I-326] | < 100 | < 10
11 | N#CCn1c(N2CCC(F)(F)CC2)c(-c2cc(F)c(F)c(Cl)c2)c(=O)n(-c2cncc(Cl)c2)c1=O [Compound I-327] | < 100 | < 10
12 | Cc1cc(-c2c(N3CCC(F)(F)CC3)n(CC#N)c(=O)n(-c3cncc(Cl)c3)c2=O)cs1 [Compound I-328] | < 100 | 10 to 100
13 | N#CCn1c(N2CCC(F)(F)CC2)c(-c2csc3ccccc23)c(=O)n(-c2cncc(Cl)c2)c1=O [Compound I-329] | < 100 | < 10
14 | N#CCn1c(N2CCC(F)(F)CC2)c(-c2cc(Cl)cc(C#N)c2)c(=O)n(-c2cncc(Cl)c2)c1=O [Compound I-330] | < 100 | < 10
15 | N#CCn1c(N2CCC(F)(F)CC2)c(-c2cc(O)cc(Cl)c2)c(=O)n(-c2cncc(Cl)c2)c1=O [Compound I-331] | < 100 | < 10
16 | N#CCn1c(N2CC3(C2)CC(F)(F)C3)c(-c2ccc(F)c(Cl)c2)c(=O)n(-c2cncc(OC(F)F)n2)c1=O [Compound I-332] | < 100 | < 10
17 | N#CCn1c(N2CC(O)(C(F)F)C2)c(-c2cc(F)c(F)c(Cl)c2)c(=O)n(-c2cncc(Cl)c2)c1=O [Compound I-333] | < 100 | < 10
18 | N#CCn1c(N2CC(OC(F)(F)F)C2)c(-c2ccc(F)c(Cl)c2)c(=O)n(-c2cncc(C(F)(F)F)n2)c1=O [Compound I-334] | < 100 | < 10
19 | N#CCn1c(N2CC(OC(F)F)C2)c(-c2ccc(F)c(Cl)c2)c(=O)n(-c2cncc(C(F)(F)F)n2)c1=O [Compound I-335] | < 100 | < 10
20 | N#CCn1c(N2CC(O)(c3ncccn3)C2)c(-c2ccc(F)c(Cl)c2)c(=O)n(-c2cncc(C(F)F)n2)c1=O [Compound I-336] | < 100 | < 10
21 | Cc1cncc(-n2c(=O)c(-c3ccc(F)c(Cl)c3)c(N3CC(O)(c4ncccn4)C3)n(CC#N)c2=O)n1 [Compound I-337] | < 100 | < 10

Row | Compound | EC50 (SARS-CoV-2) [nM] | IC50 [1] [nM]
22 | N#CCn1c(N2CC(F)(C3CC3)C2)c(-c2ccc(F)c(Cl)c2)c(=O)n(-c2cncc(C#N)c2)c1=O [Compound I-338] | < 100 | < 10
23 | N#CCn1c(N2CC3(C2)CC(F)(F)C3)c(-c2ccc(F)c(C(F)F)c2)c(=O)n(-c2cncc(Cl)c2)c1=O [Compound I-339] | < 100 | < 10
24 | N#CCn1c(N2CC(O)(C(F)(F)F)C2)c(-c2ccc(F)c(C(F)F)c2)c(=O)n(-c2cncc(Cl)c2)c1=O [Compound I-340] | < 100 | < 10
25 | N#CCn1c(N2CC(C(F)(F)F)C2)c(-c2ccc(F)c(C(F)F)c2)c(=O)n(-c2cncc(Cl)c2)c1=O [Compound I-341] | < 100 | < 10
26 | N#CCn1c(N2CC(OC(F)F)C2)c(-c2ccc(F)c(C(F)F)c2)c(=O)n(-c2cncc(Cl)c2)c1=O [Compound I-342] | < 100 | < 10
27 | N#CCn1c(N2C[C@@H]3C[C@H]2CO3)c(-c2ccc(F)c(C(F)F)c2)c(=O)n(-c2cncc(Cl)c2)c1=O [Compound I-343] | < 100 | < 10
28 | Cc1cc(-n2c(=O)c(-c3ccc(F)c(Cl)c3)c(N3CC4(C3)CC(F)(F)C4)n(CC#N)c2=O)cc(=O)o1 [Compound I-344] | < 100 | 10 to 100
29 | N#CCn1c(N2CC(O)(C(F)F)C2)c(-c2ccc(F)c(Cl)c2)c(=O)n(-c2cncc(C(F)F)n2)c1=O [Compound I-345] | < 100 | < 10
30 | N#CCn1c(N2CC(O)(c3ncccn3)C2)c(-c2ccc(F)c(Cl)c2)c(=O)n(-c2cncc(OCF)c2)c1=O [Compound I-346] | < 100 | < 10
31 | N#CCn1c(N2CC(F)(C3CC3)C2)c(-c2ccc(F)c(Cl)c2)c(=O)n(-c2cncc(OCF)c2)c1=O [Compound I-347] | < 100 | < 10
32 | N#CCn1c(C2(O)CCC2)c(-c2ccc(F)c(Cl)c2)c(=O)n(-c2cncc(Cl)c2)c1=O [Compound I-348] | < 100 | 10 to 100
33 | N#CCn1c(C2=CCC2)c(-c2ccc(F)c(Cl)c2)c(=O)n(-c2cncc(Cl)c2)c1=O [Compound I-349] | < 100 | 10 to 100
34 | N#CCn1c(CCC(F)F)c(-c2ccc(F)c(Cl)c2)c(=O)n(-c2cncc(Cl)c2)c1=O [Compound I-350] | < 100 | < 10
35 | N#CCn1c(N2CC(OC(F)(F)F)C2)c(-c2ccc(F)c(Cl)c2)c(=O)n(-c2cnc3cc(F)ccn23)c1=O [Compound I-351] | < 100 | < 10
36 | N#CCn1c(N2CC(C(F)(F)F)C2)c(-c2ccc(F)c(Cl)c2)c(=O)n(-c2cncc(OCF)c2)c1=O [Compound I-352] | < 100 | < 10
37 | N#CCn1c(N2CC3(C2)CC(F)(F)C3)c(-c2ccc(F)c(Cl)c2)c(=O)n(-c2cncc(OCF)n2)c1=O [Compound I-353] | < 100 | < 10
38 | CC1(O)CN(c2c(-c3ccc(F)c(Cl)c3)c(=O)n(-c3cncc(OC(F)F)n3)c(=O)n2CC#N)C1 [Compound I-354] | < 100 | < 10
39 | CC1(O)CN(c2c(-c3ccc(F)c(Cl)c3)c(=O)n(-c3cncc(OCF)n3)c(=O)n2CC#N)C1 [Compound I-355] | < 100 | < 10
40 | CC(C)(F)CCc1c(-c2ccc(F)c(Cl)c2)c(=O)n(-c2cncc(Cl)c2)c(=O)n1CC#N [Compound I-357] | < 100 | < 10
41 | N#CCn1c(N2CC(OC(F)F)C2)c(-c2ccc(F)c(Cl)c2)c(=O)n(-c2cncc(C(F)F)n2)c1=O [Compound I-358] | < 100 | < 10
